Type in all cases: cell-based, Human
The subject of test [1] is H1581 (FGFR1 amp). Kind of test: In vitro growth inhibition of H1581 tumor cells (MTT/CCK8). To be noted: Homo sapiens, NCI-H1581; in vitro growth inhibition (or induction of apoptosis), cells cultured 3 to 5 days, MTT (CCK8); read-out: IC50 H1581 (FGFR1 amp). The source says:
(§1) Tumor cell lines are an effective model for studying in vitro tumor growth inhibition. In the present invention, a representative tumor cell line was selected to determine the cell growth inhibition activity of the present compound. All cell lines used were from ATCC, DSMZ, and cell banks of the Chinese Academy of Sciences. Cell culture conditions and methods were in accordance with the requirements of each cell line. Cells were subcultured in vitro for no more than 3 generations each time, and as required, single-clone purification and identification of cell lines could be carried out.
(§2) The cell culture media used were RPMI1640 (Gibco), DMEM (Gibco), MEM (Gibco), L15 (Gibco), IMDM (Gibco), McCOY'S5A, and William's (Gibco). 5-20% fetal bovine serum (Gibco), 1% double antibiotic, 2 mM glutamine, or 1 mM sodium pyruvate were added. The names, species, major gene characteristics, culture media and cell sources of the cell lines used are shown in table 1, wherein “amp” refers to gene amplification. “+++” refers to gene overexpression. The main genetic characteristics of cells were obtained from the COSMIC Cell Lines Project and related research papers, respectively.
(§3) Adherent cells were digested with 0.25% trypsin-EDTA (Gibco). Suspension culture cells were collected by centrifugation (1700 rpm, 3 minutes). The supernatant was discarded and the cells were counted. According to each cell growth cycle, different concentrations of cells were prepared (5˜10×10^4 cells per ml), and inoculated to 96-well plates (Corning), with 100 μl per well, and incubated overnight at 37° C., 5% CO2. The next day, the test compound was added to the cultured cells (2 wells in parallel). The final concentration of the solvent was less than 1/1,000. The cells were further cultured for 3 to 5 days and assayed by MTT.
(§4) The compound was stored at a concentration of 10 mM at −20° C. and diluted to 2- or 10-fold series prior to use. BGJ398 and AC220 were synthesized according to the methods of WO2006420A1 and US2007232604A1, respectively.
(§5) The adherent cells were taken out from the cell culture medium, and immediately added to a freshly prepared complete medium containing 10% CCK8 (5% FBS), 100 ul per hole. The suspended cells were directly added to a CCK8 reagent until reaching a final concentration of 10% and cultured for 1 to 4 hours.
(§6) T=optical density of drug-treated cell wells−optical density of blank control wells; T0=optical density of cell wells before drug treatment−optical density of blank control wells; C=optical density of solvent control wells−optical density of blank control wells. […] The experiments were repeated 1 to 3 times and a statistical analysis of data was conducted.

The subject of test [2] is KATO III (FGFR2 amp). Put plainly: In vitro growth inhibition of KATO III tumor cells (MTT/CCK8). To be noted: Homo sapiens, KATO III; in vitro growth inhibition (or induction of apoptosis), cells cultured 3 to 5 days, MTT (CCK8); read-out: IC50 KATO III (FGFR2 amp).
Description: as §1, §2, §3, §4, §5, §6

The subject of test [3] is MOLM-13 (FLT3-ITD). Put plainly: In vitro growth inhibition of MOLM-13 tumor cells (MTT/CCK8). To be noted: Homo sapiens, MOLM-13; in vitro growth inhibition (or induction of apoptosis), cells cultured 3 to 5 days, MTT (CCK8); read-out: IC50 MOLM-13 (FLT3-ITD).
Description: as §1, §2, §3, §4, §5, §6

IC50 data for 20 molecules are collected here from patent US10800741B2 (ANCUREALL PHARMACEUTICAL (SHANGHAI) CO., LTD., priority 2017, dated 2020).

Molecules are shown by their SMILES. pIC50: −log10 of the molar value.

Regarding `COCCOc1cc2nccc(Oc3ccc(NC(=O)Nc4cc(C(C)(C)C)nn4CCN4CCOCC4)c(Cl)c3)c2cc1NC(C)=O` [Compound 123, N-[4-(4-{3-[5-tert-butyl-2-(2-morpholin-4-yl-ethyl)-2H-pyrazol-3-yl]-ureido}-3-chloro-phenoxy)-7-(2-methoxy-ethoxy)-quinolin-6-yl]-acetamide], the figures for the negative logarithm of the IC50 (pIC50) in test [1], in test [2] and in test [3] were 8.04, > 10.30 and 8.91, respectively.

Turning to `COCCOc1cc2nccc(Oc3ccc(NC(=O)Nc4cc(C(C)(C)C)nn4C4CCN(C)CC4)c(Cl)c3)c2cc1NC(C)=O` [Compound 126, N-[4-(4-{3-[5-tert-butyl-2-(1-methyl-piperidin-4-yl)-2H-pyrazol-3-yl]-ureido}-3-chloro-phenoxy)-7-(2-methoxy-ethoxy)-quinolin-6-yl]-acetamide], the pIC50 (as a rule, the IC50 on a negative log10 scale, so that one unit is a factor of ten) is 8.85 in test [1], 9.39 in test [2] and 8.12 in test [3].

Consider `COCCOc1cc2nccc(Oc3ccc(NC(=O)Nc4cc(C(C)(C)C)nn4C)cc3)c2cc1NC(C)=O` [Compound 117, N-[4-{4-[3-(5-tert-butyl-2-methyl-2H-pyrazol-3-yl)-ureido]-phenoxy}-7-(2-methoxy-ethoxy)-quinolin-6-yl]-acetamide], for which the negative-log IC50 (pIC50) in test [1] is 8.01; in test [2], 9.77; in test [3], 9.60.

For `CC(=O)Nc1cc2c(Oc3ccc(NC(=O)Nc4cc(C(C)(C)C)n[nH]4)c(Cl)c3)ccnc2cc1OCCO` [Compound 131], the pIC50 in test [1] was 7.71; in test [2], 7.94; in test [3], 7.83.

In the case of `COCCOc1cc2nccc(Oc3ccc(NC(=O)Nc4cc(C(C)(C)C)nn4CCN(C)C)c(Cl)c3)c2cc1NC(C)=O` [Compound 127, N-[4-{4-[3-(5-tert-butyl-2-dimethylamino-ethyl-2H-pyrazol-3-yl)-ureido]-3-chloro-phenoxy}-7-(2-methoxy-ethoxy)-quinolin-6-yl]-acetamide], the negative-log IC50 (pIC50) in test [1] was 8.90; in test [2], 9.57; in test [3] it was 8.59.

Take `COCCOc1cc2nccc(Oc3ccc(NC(=O)Nc4cc(C(C)(C)C)nn4C)c(Cl)c3)c2cc1NC(C)=O` [Compound 124, N-[4-{4-[3-(5-tert-butyl-2-methyl-2H-pyrazol-3-yl)-ureido]-3-chloro-phenoxy}-7-(2-methoxy-ethoxy)-quinolin-6-yl]-acetamide]: the values for the negative-log IC50 (pIC50) in test [1], in test [2] and in test [3] were 8.34, 9.51 and 9.00, respectively.

Take `CC(C)(C)c1cc(NC(=O)Nc2ccc(Oc3ccnc4cc(OCCCN5CCOCC5)c(C(N)=O)cc34)cc2Cl)n(C2CCCC2)n1` [Compound 140, 4-{4-[3-(5-tert-butyl-2-cyclopentyl-2H-pyrazol-3-yl)-ureido]-3-chloro-phenoxy}-7-(3-morpholin-4-yl-propoxy)-quinolin-6-carboxamide]: the pIC50 in test [1] was 6.94; in test [2], 7.63; in test [3] it was 7.75.

Regarding `COCCOc1cc2nccc(Oc3ccc(NC(=O)Nc4cc(C(C)(C)C)n[nH]4)c(F)c3)c2cc1NC(C)=O` [Compound 128, N-[4-{4-[3-(5-tert-butyl-2H-pyrazol-3-yl)-ureido]-3-fluoro-phenoxy}-7-(2-methoxy-ethoxy)-quinolin-6-yl]-acetamide], the values for the pIC50 in test [1], in test [2] and in test [3] were 8.70, 10.00 and 8.41, respectively.

Take `COCCOc1cc2nccc(Oc3ccc(NC(=O)Nc4cc(C(C)(C)C)nn4CCN4CCOCC4)cc3Cl)c2cc1NC(C)=O` [Compound 137, N-[4-(4-{3-[5-tert-butyl-2-(2-morpholin-4-yl-ethyl)-2H-pyrazol-3-yl]-ureido}-2-chloro-phenoxy)-7-(2-methoxy-ethoxy)-quinolin-6-yl]-acetamide]: the results for the negative logarithm of the IC50 (pIC50) in test [1], in test [2] and in test [3] were 7.39, 8.92 and 9.47, respectively.

For the molecule `COCCCOc1cc2nccc(Oc3ccc(NC(=O)Nc4cc(C(C)(C)C)n[nH]4)c(Cl)c3)c2cc1NC(C)=O` [Compound 129, N-[4-{4-[3-(5-tert-butyl-2H-pyrazol-3-yl)-ureido]-3-chloro-phenoxy}-7-(3-methoxy-propoxy)-quinolin-6-yl]-acetamide], the results for the pIC50 in test [1], in test [2] and in test [3] were 8.32, 9.47 and 8.31, respectively.

For the molecule `CC(=O)Nc1cc2c(Oc3ccc(NC(=O)Nc4cc(C(C)(C)C)n[nH]4)c(Cl)c3)ccnc2cc1OCCCN1CCN(C)CC1` [Compound 130, N-{4-{4-[3-(5-tert-butyl-2H-pyrazol-3-yl)-ureido]-3-chloro-phenoxy}-7-[3-(4-methy-piperazin-1-yl)-propoxy]-quinolin-6-yl}-acetamide], the pIC50 in test [1] is 8.95; in test [2] it was 9.27; in test [3], 8.30.

Take `COCCOc1cc2nccc(Oc3ccc(NC(=O)Nc4cc(C(C)(C)C)nn4CCN(C)C)cc3)c2cc1NC(C)=O` [Compound 119, N-[4-(4-{3-[5-tert-butyl-2-(2-dimethylamino-ethyl)-2H-pyrazol-3-yl]-ureido}-phenoxy)-7-(2-methoxyethoxy)-quinolin-6-yl]-acetamide]: the negative-log IC50 (pIC50) is 7.10 in test [1], 8.16 in test [2] and > 10.30 in test [3].

As for `CC(=O)Nc1cc2c(Oc3ccc(NC(=O)Nc4cc(C(C)(C)C)n[nH]4)c(Cl)c3)ccnc2cc1OCCN1CCOCC1` [Compound 132, N-[4-{4-[3-(5-tert-butyl-2H-pyrazol-3-yl)-ureido]-3-chloro-phenoxy}-7-(2-morpholin-4-yl-ethoxy)-quinolin-6-yl]-acetamide], the negative logarithm of the IC50 (pIC50) in test [1] is 8.41; in test [2], 8.87; in test [3] it was 9.01.

`COCCOc1cc2nccc(Oc3ccc(NC(=O)Nc4cc(C(C)(C)C)nn4C)cc3Cl)c2cc1NC(C)=O` [Compound 135, N-[4-{4-[3-(5-tert-butyl-2-methyl-2H-pyrazol-3-yl)-ureido]-2-chloro-phenoxy}-7-(2-methoxy-ethoxy)-quinolin-6-yl]-acetamide]: the negative-log IC50 (pIC50) in test [1] is 7.71; in test [2] it was 9.66; in test [3] it was 9.96.

As for `COCCOc1cc2nccc(Oc3ccc(NC(=O)Nc4cc(C(C)(C)C)nn4C4CCN(C)CC4)cc3)c2cc1NC(C)=O` [Compound 121], the pIC50 in test [1] was 7.71; in test [2], 9.30; in test [3], 9.21.

Take `COCCOc1cc2nccc(Oc3ccc(NC(=O)Nc4cc(C(C)(C)C)nn4C4CC4)cc3)c2cc1NC(C)=O` [Compound 118]: the negative logarithm of the IC50 (pIC50) in test [1] was 7.71; in test [2], 9.42; in test [3] it was 9.96.

Regarding `CC(C)(C)c1cc(NC(=O)Nc2ccc(Oc3ccnc4cc(OCCCN5CCOCC5)c(C(N)=O)cc34)cc2Cl)[nH]n1` [Compound 138, 4-{4-[3-(5-tert-butyl-2H-pyrazol-3-yl)-ureido]-3-chloro-phenoxy}-7-(3-morpholin-4-yl-propoxy)-quinolin-6-carboxamide], the negative-log IC50 (pIC50) in test [1] is 7.01; in test [2], 7.74; in test [3] it was 7.67.

With `COCCOc1cc2nccc(Oc3ccc(NC(=O)Nc4cc(C(C)(C)C)nn4C4CCNCC4)cc3)c2cc1NC(C)=O` [Compound 120, N-[4-{4-[3-(5-tert-butyl-2-piperidin-4-yl-2H-pyrazol-3-yl)-ureido]-phenoxy}-7-(2-methoxy-ethoxy)-quinolin-6-yl]-acetamide], the pIC50 is 7.10 in test [1], 7.87 in test [2] and 9.26 in test [3].

On to `COCCOc1cc2nccc(Oc3ccc(NC(=O)Nc4cc(C(C)(C)C)nn4CCN4CCOCC4)cc3)c2cc1NC(C)=O` [Compound 122], for which the pIC50 in test [1] is 7.16; in test [2] it was 9.57; in test [3], 9.22.

Consider `COCCOc1cc2nccc(Oc3ccc(NC(=O)Nc4cc(C(C)(C)C)nn4C4CC4)cc3F)c2cc1NC(C)=O` [Compound 134], for which the negative logarithm of the IC50 (pIC50) in test [1] is 7.91; in test [2], 9.52; in test [3] it was > 10.30.
